# Experimental data as given in patent US8691851B2, “Lanthanide metal complexes useful in treating cancer” (National University of Singapore, priority 2009, dated 2014).
# Assays:
# Assay type in all cases: cell-based
# RhoB = RhoB induction after preincubation with PPAR-γ antagonist; details: SHEP-1 cells, 10 uM GW9662 for 2 hours, then 10 uM C19H24N3O5S5Pr for 4 hours
# Description: SHEP-1 cancer cells were preincubated with 10 uM GW9662, a pharmacological PPAR-γ antagonist that was able to abrogate the induction of RhoB protein by C19H24N3O5S5Pr, or vehicle control for 2 hours before being exposed to 10 uM of C19H24N3O5S5Pr for 4 hours.
# PPARγ = target: T1, PPARγ (Homo sapiens, UniProt P37231); parameters: endogenous in cells; host or cells: SHSY5Y, SHEP1 / SHEP-1 (neuroblastoma); details: SHSY5Y and SHEP1 cells in 10% serum, 0 to 10 μM, 18 hours
# T1 sequence (P37231 1-505): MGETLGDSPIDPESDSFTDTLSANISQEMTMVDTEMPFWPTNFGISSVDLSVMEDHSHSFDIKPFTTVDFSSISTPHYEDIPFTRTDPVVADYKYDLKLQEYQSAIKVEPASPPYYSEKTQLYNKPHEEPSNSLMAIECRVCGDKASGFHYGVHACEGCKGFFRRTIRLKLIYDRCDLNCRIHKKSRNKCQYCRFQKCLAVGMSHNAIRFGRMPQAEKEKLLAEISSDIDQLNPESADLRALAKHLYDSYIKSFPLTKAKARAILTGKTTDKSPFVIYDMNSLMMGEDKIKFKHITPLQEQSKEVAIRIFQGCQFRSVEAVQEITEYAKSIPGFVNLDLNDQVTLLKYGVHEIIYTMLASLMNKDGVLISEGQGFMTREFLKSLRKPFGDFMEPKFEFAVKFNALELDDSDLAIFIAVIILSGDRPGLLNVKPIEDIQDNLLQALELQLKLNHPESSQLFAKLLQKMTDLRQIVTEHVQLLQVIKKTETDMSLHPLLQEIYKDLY
# Description: To determine if C19H24N3O5S5Pr activates PPARγ, SHSY5Y and SHEP1 neuroblastoma cells were transiently co-transfected with a 3×PPRE luciferase plasmid and renilla plasmid for transfection efficiency. Forty eight hours following transfection, the cells were exposed to increased concentrations (0 to 10 μM) of 15d-PGJ2 and C19H24N3O5S5Pr for 18 hours. The fold increase in luciferase activity correlates with the PPARγ activity of the cell. PPARγ activity is determined by calculating the RLU/renilla/μg total protein.
# To assess if C19H24N3O5S5Pr activation of PPARγ is dependent on expression of PPARγ neuroblastoma cells, neuroblastoma cells SHEP1 and SHSY5Y were transiently co-transfected with a 3×PPRE luciferase plasmid and renilla plasmid for transfection efficiency. Forty eight hours following transfection, cells were exposed to increased concentrations (0 to 20 μM) of C19H24N3O5S5Pr for 18 hours. PPARγ activity was calculated as luciferase RLU/renilla/μg total protein.
# LC3 II = LC3 II formation by Western blot; details: SHSY5Y cells, 5 or 10 mM 3MA for 2 hours, then 10 uM C19H24N3O5S5Pr for 7 hours
# [1] = test system: SHEP-1 and MDA-MB-231 cancer cells; assay: Morphological changes of cancer cells; details: 10 mM 3MA, then 5 μM (SHEP-1) or 10 μM (MDA-MB-231) C19H24N3O5S5Pr
compound,measurement,setting,value
O=C(Nc1ccccc1)c1cc([N+](=O)[O-])ccc1Cl [GW9662],RhoB expression induced by C19H24N3O5S5Pr after antagonist preincubation,RhoB,RhoB was not expressed
"CCCCC/C=C/C=C1/C(=O)C=CC1C/C=C\CCCC(=O)O (stereo not shown) [15dPGJ2, 15-deoxy-Delta-12,14, prostaglandin, reference compound]",PPARγ activation (luciferase RLU/renilla/μg total protein),PPARγ,did not display any PPARγ activation
"Cn1cnc(N)c2ncnc1-2 [3MA, 3-methyl adenine, reference compound]",LC3 II levels induced by C19H24N3O5S5Pr after 3MA preincubation,LC3 II,LC3 II levels were reduced
same,cell morphology after 3MA preincubation followed by C19H24N3O5S5Pr,[1],did not demonstrate this death-like morphology
